# System: SIVmac251
# Assay: SIVmac251-infected, CD8-depleted animals, 250 mg/m^2 on alternate weeks
# Format: in vivo, rhesus macaque
# Description: These experiments once again used SIVmac251-infected, CD8-depleted animals, and again treatment was initiated at five days p.i. For this experiment, however, 250 mg/m^2 PA-001 (MGBG) was used and the animals were treated on alternate weeks, as is done in humans. Two animals were SIVmac251-infected, CD8-depleted, and PA-001 treated, and two were not drug treated, SIVmac251-infected, CD8-depleted controls. As of the time this study was conducted, the treated animals had received four doses of PA-001 and lived past day 55. In contrast, the non-treated animals developed AIDS and SIV encephalitis (SIVE) and in fact, one of the CD8-depleted, non-treated animals had died of AIDS and SIVE and the second non PA-001 treated animal was scheduled for sacrifice due to AIDS.
# SIV-infected, CD8-depleted animals without PA-001 treatment (EJ02 and EL95) had higher counts of total monocytes (top) and the CD14+CD16+ subset (bottom). In fact, one of the untreated animals (EJ02) died of AIDS and SIVE at day 55 p.i.
smiles,measurement,setting,value
CC(/C=N/NC(=N)N)=N\NC(=N)N [MGBG],CD14+ and CD16+ monocyte populations,detailed flow cytometry,significant decreases
same,survival of treated animals,"four doses of 250 mg/m^2, alternate weeks",> 55 days
same,absolute numbers of total monocytes,"vs non-treated animals, FIG. 11",lower absolute numbers

# Source: patent publication US7879914B2, “Methods for treating viral infections using polyamine analogs” (Pathlogica LLC, priority 2005, dated 2011)
